This note sets out measurements from ChEMBL document CHEMBL1201862, “PubChem BioAssay data set” (2004).

Some test systems named below: DLD-1; DMS-114; DMS-273; HOP-18; KM-20L2; M19-MEL; RXF 631; SNB-78; XF498.
Common to all, as to test: NCI-60 cell line screen, 48 h

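Five compound concentrations were applied to cells in 96-well plates for 48 hours; endpoints were derived by simple linear interpolation of the resulting dose-response curve. GI50 = concentration required for 50% inhibition of growth.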 The source made the active and inactive calls. No stated cut-off is given here; in the data, active = GI50 up to about 1.1 µM and inactive = higher.

With `O=C1/C(=C/c2ccccc2)CCCC/C1=C\c1ccccc1`, the GI50 was 34.2 µM (inactive) in the assay on DLD-1; 42.5 µM (inactive) with DMS-114; 47.1 µM (inactive) with DMS-273; > 100 µM (inactive) in the assay with HOP-18; 31 µM (inactive) in the assay with KM-20L2; 48.5 µM (inactive) in the assay on M19-MEL. Further, the GI50 in the assay with RXF 631 was 52.8 µM (inactive); in the assay with SNB-78, > 100 µM (inactive); with XF498, 54.5 µM (inactive).
In the case of `CCC(O)(c1ccc(OC)cc1)C(c1ccc(OCc2ccccc2)cc1)c1ccc(OCc2ccccc2)cc1` (configuration not stated), the GI50 in the assay with DLD-1, in the assay on DMS-114, in the assay on DMS-273, with KM-20L2, in the assay with M19-MEL and in the assay with RXF 631 was > 100 µM (inactive) in each case. In addition, the GI50 in the assay on SNB-78 and with XF498 was > 100 µM (inactive) throughout.
In the case of `CC1=Nc2c(ccc3c2C(=O)c2ccccc2C3=O)NC(c2ccncc2)C1` (configuration not stated), the GI50 with DLD-1 is 29.4 µM (inactive); with DMS-114, 7.74 µM (inactive); with DMS-273, > 10 µM (inactive); in the assay with HOP-18 it was > 10 µM (inactive); in the assay with KM-20L2, > 10 µM (inactive); in the assay on M19-MEL, > 10 µM (inactive). Besides, the results for the GI50 with RXF 631, in the assay with SNB-78 and with XF498 were 36.6 µM (inactive), > 10 µM (inactive) and > 100 µM (inactive), respectively.
With `O=C(N/C(=C\c1cccc([N+](=O)[O-])c1)c1nc2c(O)nc(S)nc2[nH]1)c1ccccc1`, the GI50 in the assay with DLD-1 was > 100 µM (inactive); in the assay on DMS-114, 88.9 µM (inactive); in the assay with HOP-18, > 100 µM (inactive); in the assay on KM-20L2, > 100 µM (inactive); in the assay with M19-MEL, > 100 µM (inactive); in the assay with RXF 631, > 100 µM (inactive). For the same compound, the GI50 in the assay on SNB-78 and with XF498 was > 100 µM (inactive) each time.
For the compound `COC(=O)c1nn(C(=N)c2ccc(Cl)cc2)c2c1CCC2`, the GI50 in the assay on DLD-1, in the assay on DMS-114, in the assay on DMS-273, in the assay on KM-20L2, with M19-MEL and in the assay on SNB-78 was > 100 µM (inactive) throughout. In addition, the GI50 in the assay on XF498 is > 100 µM (inactive).
For the compound `CCCCN(CCCC)C(=O)/C(CC(=O)c1cccc2ccccc12)=N\NC(=O)c1cc2ccccc2cc1O`, the GI50 in the assay on DLD-1 was 23.4 µM (inactive); with KM-20L2 it was 22.1 µM (inactive); in the assay on M19-MEL, 20.4 µM (inactive); in the assay on RXF 631 it was 26.7 µM (inactive); in the assay with SNB-78, 24.7 µM (inactive); in the assay with XF498 it was 20 µM (inactive).
On to `O=C1CCCCCCCCCCC(=O)C2CCOCCOCCOCCC1Cc1cccc(n1)C2`, for which the GI50 in the assay on DLD-1 was > 100 µM (inactive); with DMS-114 it was 77.6 µM (inactive); in the assay with DMS-273, 54.5 µM (inactive); in the assay on KM-20L2, > 100 µM (inactive); in the assay on M19-MEL, > 100 µM (inactive); in the assay with RXF 631, 80.4 µM (inactive). The results for the GI50 in the assay with SNB-78 and in the assay on XF498 were 79.6 µM (inactive) and 59.7 µM (inactive), respectively.
On to `CC(C)(C)[Si](C)(C)O/N=C\c1cccc(O[Si](C)(C)C(C)(C)C)c1`, for which the GI50 in the assay with DLD-1 is 17.8 µM (inactive); in the assay on DMS-114, 18.8 µM (inactive); in the assay with DMS-273, 17.7 µM (inactive); in the assay with HOP-18 it was 22.5 µM (inactive); in the assay with KM-20L2, 20.1 µM (inactive); in the assay on M19-MEL, 17.8 µM (inactive). In addition, the results for the GI50 in the assay on SNB-78 and in the assay with XF498 were 15.7 µM (inactive) and 18.5 µM (inactive), respectively.
As to `OCC(O)COc1c(Cl)cc(Cl)cc1Cl` (configuration not stated), the GI50 with DLD-1 is > 59.7 µM (inactive); in the assay on DMS-114, > 100 µM (inactive); in the assay on DMS-273, > 100 µM (inactive); with HOP-18, > 100 µM (inactive); in the assay with KM-20L2, > 100 µM (inactive); in the assay on M19-MEL it was > 100 µM (inactive). Moreover, the GI50 in the assay with RXF 631, in the assay on SNB-78 and in the assay with XF498 was > 100 µM (inactive) each time.
Take `COC(=O)C(CC(=O)c1c[nH]c2ccccc12)c1c[nH]c2ccccc12` (configuration not stated): the GI50 is 30.8 µM (inactive) in the assay with DLD-1; 15.8 µM (inactive) with DMS-114; 13.5 µM (inactive) with DMS-273; 17.9 µM (inactive) with KM-20L2; > 10 µM (inactive) in the assay on M19-MEL; 15.8 µM (inactive) in the assay with RXF 631. For the same compound, the GI50 was 22.2 µM (inactive) in the assay on SNB-78 and 17.9 µM (inactive) with XF498.
With `CC1(C)COC(c2ccc(C(F)(F)F)cc2C(O)c2ccc3ccccc3c2)=N1` (configuration not stated), the GI50 in the assay with DLD-1, in the assay with DMS-114, with DMS-273, in the assay with HOP-18, in the assay on KM-20L2 and in the assay with M19-MEL was > 10 µM (inactive) each time. The GI50 is > 100 µM (inactive) in the assay on RXF 631, 89.3 µM (inactive) in the assay on SNB-78 and 64.3 µM (inactive) in the assay with XF498.
Take `CC(C)(C)C(=O)/C=C/c1cccc(Oc2ccccc2)c1`: the GI50 in the assay with DLD-1 is 11.5 µM (inactive); in the assay on HOP-18 it was 16.6 µM (inactive); in the assay with KM-20L2, 14.3 µM (inactive); with M19-MEL, 16.9 µM (inactive); in the assay with RXF 631, 28.1 µM (inactive); in the assay on SNB-78, 14.2 µM (inactive). Besides, in the assay on XF498, the GI50 was 18.8 µM (inactive).
`C[n+]1c2ccccc2c(CNC(CCC(N)=O)C(=O)O)c2ccccc21` (configuration not stated): the GI50 in the assay on DLD-1 is 0.475 µM (active); in the assay on DMS-114, 0.577 µM (active); in the assay with DMS-273, 1.21 µM (inactive); with HOP-18 it was 2.09 µM (inactive); in the assay with KM-20L2, 1.1 µM (active); in the assay with M19-MEL, 2.18 µM (inactive). In addition, the figures for the GI50 in the assay with SNB-78 and in the assay on XF498 were 6.5 µM (inactive) and 2 µM (inactive), respectively.
In the case of `Cc1ccccc1C(C#N)C(=O)C(=O)Nc1cccc(Cl)c1` (configuration not stated), the GI50 was > 100 µM (inactive) in the assay with DLD-1; 54.6 µM (inactive) with DMS-114; > 100 µM (inactive) in the assay with DMS-273; > 100 µM (inactive) in the assay on KM-20L2; 26.4 µM (inactive) in the assay on M19-MEL; > 100 µM (inactive) in the assay with RXF 631. The GI50 was > 100 µM (inactive) in the assay on SNB-78 and 71.4 µM (inactive) in the assay on XF498.
Consider `CC1(C)OC(=O)C(c2cccs2)C(=O)O1`, for which the GI50 in the assay with DLD-1, in the assay with DMS-114, in the assay on DMS-273, in the assay on HOP-18, with KM-20L2 and in the assay with SNB-78 was > 100 µM (inactive) each time. In the assay with XF498, the GI50 is > 100 µM (inactive).
Take `CN(c1n[n+]2c(-c3ccccc3)csc2s1)c1n[n+]2c(-c3ccccc3)csc2s1`: the GI50 was > 100 µM (inactive) with DLD-1; 59.6 µM (inactive) with DMS-114; > 100 µM (inactive) in the assay with DMS-273; > 100 µM (inactive) in the assay on HOP-18; > 100 µM (inactive) in the assay with KM-20L2; > 100 µM (inactive) in the assay on M19-MEL. In addition, the GI50 in the assay on SNB-78 and with XF498 was > 100 µM (inactive) throughout.
